Broadly, the pIC50 is the negative decadic logarithm of the IC50, by convention in mol/L.

pIC50: −log10 of the molar value. Structures can show the parent of a compound that is named as a salt.

Experiment [1] concerns the target T1, VEGF Receptor 2 Kinase (VEGFR2) (Homo sapiens, UniProt P35968).
T1 construct: made in house; host or cells: SF-21 insect cells, recombinant baculovirus BAC-VEGFR2 (pFASTBAC1)
Briefly: Determination of VEGF receptor 2 kinase (VEGFR2) inhibitory activity (alpha screen). Format: biochemical. The note with it: VEGFR2 intracellular domain protein, 25 μM ATP buffer, read-out: inhibitory rate (kinase inhibitory rate of VEGFR2). The procedure: For cloning of human VEGF receptor 2 (hereinafter to be abbreviated as VEGFR2) gene, PCR was performed using cDNA Libraries Human Placenta (Clontech) as a template. The primer used for PCR was prepared by, based on the information of the base sequence (Genbank Accession AF035121) of VEGFR2 gene, adding a base sequence encoding the flag peptide and a restriction enzyme recognition sequence to the base sequence (2671-4374 of Genbank Accession AF035121) encoding the VEGFR2 intracellular domain, so that a flag tag would be added to the N terminal of the protein. The primer base sequence is shown in the following.
PCR reaction was carried out using a KOD-plus kit (TOYOBO). The obtained PCR product was electrophoresed on an agarose gel (1%), and a DNA fragment amplified by PCR was recovered from the gel and digested with restriction enzymes Sal I and Sph I. The DNA after the restriction enzyme treatment was electrophoresed on an agarose gel (1%), and the obtained DNA fragment was recovered and ligated to the plasmid pFASTBAC1 (Invitrogen) digested with restriction enzymes Sal I and Sph I to give an expression plasmid pFB-VEGFR2. The base sequence of the inserted fragment was confirmed to have matched with the base sequence (2671-4374 of Genbank Accession AF035121) of the VEGFR2 intracellular domain. Furthermore, virus stock BAC-VEGFR2 of the recombinant Baculovirus was prepared using BAC-TO-BAC Baculovirus Expression System (Invitrogen).
SF-21 cells were inoculated into 1 L of Sf-900IISFM medium (Invitrogen) containing 10% fetal calf serum (trace), 50 mg/L Gentamicin (Invitrogen) and 0.1% Pluronic F-68 (Invitrogen) at 1×10^6 cells/ml, and shake culture was performed using a 2 L Erlenmeyer flask at 27° C., 100 rpm. After 24 hr of culture, recombinant Baculovirus BAC-VEGFR2 (13.4 mL) was added, and the culture was continued for 3 days. The culture medium was centrifuged at 2,000 rpm for 5 min to give virus-infected cells. The infected cells were washed with phosphate buffered saline (Invitrogen), centrifuged under the same conditions, and preserved at −80° C. The cryopreserved cells were thawed in ice, suspended in 30 mL of buffer A (Tris buffer, pH 7.4, containing 20% glycerol and 0.15M NaCl (50 mM)) supplemented with Complete Protease Inhibitor (Boehringer), and disrupted three times using a polytron homogenizer (Kinematica) at 20,000 rpm, 30 sec. The disrupt was clarified by centrifugation at 40,000 rpm, 30 min and filtered through a 0.45 μm filter. The filtrate was passed through a column packed with Anti-FLAG M2 Affinity Gel (Sigma Ltd., 4 mL) at a flow rate of about 0.5 mL/min. The column was washed with buffer A and eluted with buffer A containing 100 μg/mL FLAG peptide. The eluate was concentrated by Vivaspin 20 (Viva Science) having a fraction molecular weight of 30K. The concentrate was applied to NAP™ 25 column (Amersham Biosciences) equilibrated with buffer A for buffer exchange. The fractions containing the VEGFR2 intracellular domain protein were collected, glycerol was added to the final concentration of 50% and the fractions cryopreserved at ˜80° C.
The test compound dissolved in dimethyl sulfoxide (DMSO) was diluted with a buffer (50 mM Tris-HCl, pH 7.5, 5 mM MgCl2, 5 mM MnCl2, 2 mM dithiothreitol, 0.01% Tween-20). A buffer (10 μl) containing 50 ng/ml VEGFR2 intracellular domain protein and 250 ng/ml biotin-labeled polypeptide biotinyl-poly-Glu:Tyr (4:1) (CIS Bio International) was added to the compound solution (5 μl). A buffer (10 μl) containing 25 μM ATP was added to the obtained mixture, the mixture was allowed to react at 25° C. for 5 min. Then, 25 μl of a stop solution (100 mM EDTA·2 sodium salt, 62.5 mM HEPES buffer (pH 7.4), 250 mM NaCl, 0.1% bovine serum albumin, 10 μg/ml Streptavidin Donor beads: PerkinElmer for alpha screen assay, 10 μg/ml Anti-phosphotyrosine (P-Tyr-100) Acceptor beads: PerkinElmer for alpha screen assay) was added to quench the reaction. […]

Experiment [2] deals with T2, PDGFR Alpha Receptor Kinase (PDGFRalpha) (Homo sapiens, UniProt P16234).
T2 construct: PDGFRalpha intracellular domain protein (UPSTATE); purchased UPSTATE
Briefly: Determination of PDGFR alpha receptor kinase (PDGFRalpha) inhibitory activity (alpha screen). Format: biochemical. The settings on record: PDGFRalpha intracellular domain protein, 25 μM ATP buffer; read-out: IC50 value (PDGFRalpha kinase inhibition). The method, then:
The test compound dissolved in dimethyl sulfoxide (DMSO) was diluted with a buffer (50 mM Tris-HCl, pH 7.5, 5 mM MgCl2, 5 mM MnCl2, 2 mM dithiothreitol, 0.01% Tween-20).
Acceptor beads: PerkinElmer for alpha screen assay) was added to quench the reaction. The reaction solution was stood at 25° C. for 16 hr, and the count was measured using a plate reader·Fusion™ (manufactured by PerkinElmer). The kinase inhibitory rate (%) of the test compound was calculated by the following formula.
(§1) Inhibitory rate(%)=(1−(count of test compound−blank)÷(control−blank))×100
(§2) wherein the count of the solution reacted without addition of the compound is “control” and the count of the solution without addition of the compound and ATP is “blank”.

The target in experiment [3] is T3, TIE2 Receptor Kinase (TIE2) (Homo sapiens, UniProt Q02763).
T3 construct: TIE2 intracellular domain protein (UPSTATE); purchased UPSTATE
Briefly: Determination of TIE2 receptor kinase (TIE2) inhibitory activity (alpha screen). Format: biochemical. The settings on record: TIE2 intracellular domain protein, 5 μM ATP buffer; read-out: IC50 value (TIE2 kinase inhibition). The method, then:
The test compound dissolved in dimethyl sulfoxide (DMSO) was diluted with a buffer (50 mM Tris-HCl, pH 7.5, 5 mM MgCl2, 5 mM MnCl2, 2 mM dithiothreitol, 0.01% Tween-20). A buffer (10 μl) containing 50 ng/ml TIE2 intracellular domain protein (UPSTATE) and 250 ng/ml biotin-labeled polypeptide biotinyl-poly-Glu:Tyr (4:1) (CIS Bio International) was added to the compound solution (5 μl). At 5 min after mixing a kinase enzyme, the compound and a biotin-labeled polypeptide, a buffer (10 μl) containing 5 μM ATP was added to the obtained mixture, the mixture was allowed to react at 25° C. for 10 min. Then, 25 μl of a stop solution (100 mM EDTA·2 sodium salt, 62.5 mM HEPES buffer (pH 7.4), 250 mM NaCl, 0.1% bovine serum albumin, 10 μg/ml Streptavidin Donor beads: PerkinElmer for alpha screen assay, 10 μg/ml Anti-phosphotyrosine (P-Tyr-66) Acceptor beads: PerkinElmer for alpha screen assay) was added to quench the reaction. The reaction solution was stood at 25° C. for 16 hr, and the count was measured using a plate reader·Fusion™ (manufactured by PerkinElmer). The kinase inhibitory rate (%) of the test compound was calculated by the following formula.
as §1, §2
Prism (Graphpad Software) according to the nonlinear-regression sigmoidal dose-response (variable slope) analysis method.

Experiment [4] has as its system Human umbilical vein endothelial cells (HUVEC). The experiment can be described thus: Vascular endothelial cell growth inhibitory test. Format: cell-based. The note with it: VEGF 120 ng/mL, culture 5 days, XTT reagent. The method, then: Human umbilical vein endothelial cells (HUVEC, purchased from KURABO) were cultured in a gas incubator (37° C., CO2 5%) in a vascular endothelial cell medium (Invitrogen) containing 5% fetal calf serum and a basic fibroblast growth factor (2.5 ng/mL). To be specific, HUVEC suspended in the aforementioned vascular endothelial cell medium (Invitrogen) containing 5% fetal calf serum were seeded into a 96 well flat-bottom plate (50 μL, 3000 cells each well). After culturing overnight, various concentrations of test substance and the final concentration (120 ng/mL) of vascular endothelial growth factor (VEGF) were dissolved in a vascular endothelial cell medium (Invitrogen) containing 5% fetal calf serum and added to each well (50 μL). After culturing for 5 days, an XTT reagent (Wako Pure Chemical Industries, Ltd.) was added to each well (10 μL), and reacted in a gas incubator (37° C., CO2 5%) for 2-3 hr. The absorbance at 450 nm was measured by a microtiter plate reader, and the cell growth inhibitory activity was determined.

T1 sequence (P35968 786-1356 limits assumed): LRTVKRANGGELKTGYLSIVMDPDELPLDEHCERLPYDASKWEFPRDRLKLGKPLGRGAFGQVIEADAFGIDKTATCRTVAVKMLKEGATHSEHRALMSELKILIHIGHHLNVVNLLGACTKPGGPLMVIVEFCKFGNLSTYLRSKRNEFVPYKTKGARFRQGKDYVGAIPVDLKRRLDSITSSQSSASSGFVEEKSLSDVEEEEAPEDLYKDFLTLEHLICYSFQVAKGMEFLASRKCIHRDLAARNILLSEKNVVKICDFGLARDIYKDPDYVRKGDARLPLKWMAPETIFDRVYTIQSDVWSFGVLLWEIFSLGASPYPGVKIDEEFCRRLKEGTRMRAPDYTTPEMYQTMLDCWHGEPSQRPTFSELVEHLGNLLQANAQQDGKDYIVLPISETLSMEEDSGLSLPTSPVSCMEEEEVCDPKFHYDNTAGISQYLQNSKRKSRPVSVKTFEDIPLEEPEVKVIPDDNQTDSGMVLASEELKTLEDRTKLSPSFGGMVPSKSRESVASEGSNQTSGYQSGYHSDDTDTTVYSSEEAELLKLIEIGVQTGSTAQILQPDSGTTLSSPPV
T3 sequence (Q02763 770-1124 limits assumed): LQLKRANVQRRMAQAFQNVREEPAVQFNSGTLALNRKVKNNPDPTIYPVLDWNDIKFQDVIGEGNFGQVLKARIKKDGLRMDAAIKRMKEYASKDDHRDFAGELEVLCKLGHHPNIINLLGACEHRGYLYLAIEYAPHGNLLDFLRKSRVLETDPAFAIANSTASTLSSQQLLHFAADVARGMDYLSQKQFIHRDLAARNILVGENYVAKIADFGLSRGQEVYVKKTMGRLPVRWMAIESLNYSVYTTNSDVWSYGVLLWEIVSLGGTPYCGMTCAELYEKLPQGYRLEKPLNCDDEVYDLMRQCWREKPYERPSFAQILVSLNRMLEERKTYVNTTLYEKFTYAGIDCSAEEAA
T2 sequence (P16234 550-1089 limits assumed): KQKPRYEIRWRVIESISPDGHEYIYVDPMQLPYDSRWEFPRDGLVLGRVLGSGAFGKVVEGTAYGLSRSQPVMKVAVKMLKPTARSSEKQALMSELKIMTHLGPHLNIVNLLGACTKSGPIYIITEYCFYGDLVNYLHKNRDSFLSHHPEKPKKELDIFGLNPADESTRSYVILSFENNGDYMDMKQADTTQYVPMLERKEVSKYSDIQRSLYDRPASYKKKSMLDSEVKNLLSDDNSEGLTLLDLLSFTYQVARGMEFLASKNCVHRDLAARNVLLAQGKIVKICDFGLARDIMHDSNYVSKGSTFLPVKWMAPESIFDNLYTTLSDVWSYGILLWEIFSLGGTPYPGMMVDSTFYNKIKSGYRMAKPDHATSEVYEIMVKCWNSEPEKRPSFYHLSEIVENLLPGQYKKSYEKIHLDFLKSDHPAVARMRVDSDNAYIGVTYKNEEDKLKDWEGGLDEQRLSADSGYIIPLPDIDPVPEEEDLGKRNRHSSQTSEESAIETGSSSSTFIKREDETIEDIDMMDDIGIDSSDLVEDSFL

Turning to `O=C(Nc1cccc(C(F)(F)F)c1)Nc1ccc(Oc2ncnc3ccn(CCOCCO)c23)cc1Cl` [Example 14, N-[2-chloro-4-({5-[2-(2-hydroxyethoxy)ethyl]-5H-pyrrolo[3,2-d]pyrimidin-4-yl}oxy)phenyl]-N′-[3-(trifluoromethyl)phenyl]urea], the inhibition at 1 µM in experiment [1] was at least 90%. The pIC50 was at least 6.30 in experiment [2]; at least 8.30 in experiment [3]; 7.48 in experiment [4] (Homo sapiens, 120 h).
Consider `Cn1ccc2ncnc(Oc3ccc(NC(=O)Nc4cccc(C(F)(F)F)c4)c(F)c3)c21` [Example 29, N-{2-fluoro-4-[(5-methyl-5H-pyrrolo[3,2-d]pyrimidin-4-yl)oxy]phenyl}-N′-[3-(trifluoromethyl)phenyl]urea], for which, in experiment [4], the pIC50 is 8.36.
As for `Cn1ccc2ncnc(Oc3ccc(NC(=O)Nc4cc(C(F)(F)F)ccn4)c(Cl)c3)c21` [Example 30, N-{2-chloro-4-[(5-methyl-5H-pyrrolo[3,2-d]pyrimidin-4-yl)oxy]phenyl}-N′-[4-(trifluoromethyl)pyridin-2-yl]urea], the inhibition at 1 µM in experiment [1] is at least 90%. Besides, in experiment [4], the pIC50 is 8.57.
Turning to `O=C(Nc1cccc(C(F)(F)F)c1)Nc1ccc(Oc2ncnc3cc[nH]c23)cc1Cl` [Example 39, N-[2-chloro-4-(5H-pyrrolo[3,2-d]pyrimidin-4-yloxy)phenyl]-N′-[3-(trifluoromethyl)phenyl]urea], the pIC50 in experiment [4] (Homo sapiens, 120 h) is 8.32.
With `Cn1ccc2ncnc(Oc3ccc(NC(=O)Nc4cc(C(F)(F)F)ccc4F)c(Cl)c3)c21` [Example 40, N-{2-chloro-4-[(5-methyl-5H-pyrrolo[3,2-d]pyrimidin-4-yl)oxy]phenyl}-N′-[2-fluoro-5-(trifluoromethyl)phenyl]urea], in experiment [1], the inhibition at 1 µM was at least 90%. Besides, the pIC50 in experiment [3] is at least 8.30; in experiment [4] (Homo sapiens, 120 h), 7.96.
With `Cn1ccc2ncnc(Oc3ccc(NC(=O)Nc4cc(C(F)(F)F)ccn4)c(Cl)c3)c21` [Example 60, N-{2-chloro-4-[(5-methyl-5H-pyrrolo[3,2-d]pyrimidin-4-yl)oxy]phenyl}-N′-[4-(trifluoromethyl)pyridin-2-yl]urea Methanesulfonic Acid Salt], the pIC50 in experiment [3] was at least 8.30; in experiment [4], 8.19.
Take `O=C(Nc1cccc(C(F)(F)F)c1)Nc1ccc(Oc2ncnc3cc[nH]c23)cc1Cl` [Example 116, N-[2-chloro-4-(5H-pyrrolo[3,2-d]pyrimidin-4-yloxy)phenyl]-N′-[3-(trifluoromethyl)phenyl]urea p-toluenesulfonic Acid Salt]: the inhibition at 1 µM in experiment [1] was at least 90%. The pIC50 in experiment [2] is at least 6.30; in experiment [3], at least 8.30; in experiment [4], 8.47.
Molecule `Cc1cc2ncnc(Oc3ccc(NC(=O)Nc4cccc(C(F)(F)F)c4)c(Cl)c3)c2n1C` [Example 124, N-{2-chloro-4-[(5,6-dimethyl-5H-pyrrolo[3,2-d]pytimidin-4-yl)oxy]phenyl}-N′-[3-(trifluoromethyl)phenyl]urea] gave a pIC50 in experiment [4] of 7.89.
The molecule `Cc1cc2ncnc(Oc3ccc(NC(=O)Nc4cccc(C(F)(F)F)c4)c(Cl)c3)c2n1C` [Example 134, N-{2-chloro-4-[(5,6-dimethyl-5H-pyrrolo[3,2-d]pyrimidin-4-yl)oxy]phenyl}-N′-[3-(trifluoromethyl)phenyl]urea hydrochloride] had a negative-log IC50 (pIC50) in experiment [4] (hydrochloride) of 8.27.
Consider `Cn1ccc2ncnc(Oc3ccc(NC(=O)Nc4cccc(C(F)(F)F)c4)c(F)c3)c21` [Example 137, N-{2-fluoro-4-[(5-methyl-5H-pyrrolo[3,2-d]pyrimidin-4-yl)oxy]phenyl}-N′-[3-(trifluoromethyl)phenyl]urea Hydrochloride], for which the inhibition at 1 µM in experiment [1] was at least 90%. The pIC50 in experiment [3] was at least 8.30; in experiment [4] (Homo sapiens, 120 h), 8.44.

The values above are taken from US20090137580A1, “Fused Heterocyclic Derivatives and Use Thereof” (Takeda Pharmaceutical Company Limited, priority 2005, published 2009).
